From patent publication US9480259B2, “Pyrazolopyrans having herbicidal and pharmaceutical properties” (BASF SE, priority 2012, dated 2016)

Target: Arabidopsis thaliana SHMT
Assay: SHMT activity assay (ED50 SHMT), coupled with N5,N10-CH2-THF dehydrogenase, NADH at 340 nm
Format: biochemical
Description: Determination of the ED50 SHMT was carried out as described hereinunder.
Purification of Arabidopsis thaliana SHMT
The following buffers were used during the purification protocol:
Buffer A (Lysis and Wash Buffer): • 20 mM Na-Phosphat (pH 7,4) • 500 mM NaCI • 40 mM Imidazole • 1.0 mM L-Serine • 0.5 mM Pyridoxal-5-phosphate • 0.5 mM DTT
Buffer B (Elution Buffer): • 20 mM Na-Phosphat (pH 7,4) • 500 mM NaCl • 250 mM Imidazole • 1.0 mM L-Serine • 0.5 mM Pyridoxal-5-phosphate • 0.5 mM DTT
All procedures were conducted at 4° C. or on ice. Pellets were suspended in Buffer A containing 1 mg/ml DNAse +Complete EDTA-free protease inhibitor tablet. Cells were lysed using sonication or a French Press device, using standard settings. Lysis was centrifuged at 40000×g for 25 minutes. The supernatant was filtered (0.22 μM) before loading onto a Ni-NTA column.
A gravity flow column containing Ni-NTA resin was equilibrated with 10 CV Buffer A and loaded with filtered cell lysate. The column was then washed with 10 CV Buffer A. Elution was afforded using Buffer B and collected manually as mini-factions. EDTA was added after elution to a final concentration of 1 mM. Fractions were pooled on the basis of the correct band for SHMT visualised via SDS-PAGE and staining.
SHMT Assay Buffer: • 50 mM KH2PO4 (pH 7,4) • 2.0 mM NAD+ • 7.5 mM DTT • 0.3 mM Tetrahydrofolic acid • 4% DMSO
Reaction Start: 20 mM L-Serine
The rate of N5,N10-CH2-THF formation catalyzed by SHMT was monitored at 340 nm by coupling with excess N5,N10-CH2-THF dehydrogenase, which converts NAD+to NADH. Reactions were initiated by adding 20 mM L-Serine. Inhibition of initial velocity was determined by adding various inhibitors of the SHMT reaction and monitored as described. Reactions were measured in a Bio Tek micro titer plate reader following the change in absorption with the formation of NADH for 30 mimnutes.

[1] = inhibition of initial velocity of Arabidopsis thaliana SHMT
[2] = Table 2, values given as upper bounds

COc1ccc2cc(C3(C4(F)CC4)C(C#N)=C(N)Oc4[nH]nc(C)c43)ccc2c1 (racemic) [Compound 4.40]
EC50 [1]: < 10 nM

Cc1n[nH]c2c1C(c1ccc3c(c1)OCCO3)(C1(F)CC1)C(C#N)=C(N)O2 (racemic) [Compound 4.51]
EC50 [1]: < 100 nM

Cc1n[nH]c2c1C(c1nc3c(Br)cccc3o1)(C1CCC1)C(C#N)=C(N)O2 (racemic) [Compound 4.58]
EC50 [1]: < 100 nM

Cc1n[nH]c2c1C(c1ccc3ccccc3c1)(C1(F)CC1)C(C#N)=C(N)O2 (racemic) [Compound 4.59]
EC50 [1]: < 100 nM

CCC1(CCC2CCCCC2)C(C#N)=C(N)Oc2[nH]nc(C)c21 (racemic) [Compound 4.65]
EC50 [1]: < 1000 nM

Cc1csc(C2(C3CC3)C(C#N)=C(N)Oc3[nH]nc(C)c32)c1 (racemic) [Compound 4.70]
EC50 [1]: < 1000 nM

COc1ccc2cc(C3(C4(F)CC4)C(C#N)=C(N)Oc4[nH]ncc43)ccc2c1 (racemic) [Compound 4.75]
EC50 [1]: < 1000 nM

Cc1n[nH]c2c1C(c1ccc3c(c1)OC(F)(F)O3)(C1(F)COC1)C(C#N)=C(N)O2 (racemic) [Compound 4.84]
EC50 [1]: < 10000 nM

CCC1(c2cccc(Oc3ccccc3)c2)C(C#N)=C(N)Oc2[nH]nc(C)c21 (centres unmarked) [Compound 2.1.]
EC50 [2]: < 100 nM

CCC1(c2ccc(F)cc2)C(C#N)=C(N)Oc2[nH]nc(C)c21 (centres unmarked) [Compound 2.2.]
EC50 [2]: < 10000 nM

CCC1(c2cccc(Br)c2)C(C#N)=C(N)Oc2[nH]nc(C)c21 (centres unmarked) [Compound 2.4.]
EC50 [2]: < 1000 nM

CCC1(c2ccc(NC(C)=O)cc2)C(C#N)=C(N)Oc2[nH]nc(C)c21 (centres unmarked) [Compound 2.6.]
EC50 [2]: < 10000 nM

CCC1(c2ccc(C(C)(C)C)cc2)C(C#N)=C(N)Oc2[nH]nc(C)c21 (centres unmarked) [Compound 2.7.]
EC50 [2]: < 10000 nM

CCC1(c2ccc(Oc3ccccc3)cc2)C(C#N)=C(N)Oc2[nH]nc(C)c21 (centres unmarked) [Compound 2.8.]
EC50 [2]: < 1000 nM

CCC1(c2ccc(F)c(Oc3ccccc3)c2)C(C#N)=C(N)Oc2[nH]nc(C)c21 (centres unmarked) [Compound 2.11.]
EC50 [2]: < 1000 nM

CCC1(c2cc(Cl)cc(Cl)c2)C(C#N)=C(N)Oc2[nH]nc(C)c21 (centres unmarked) [Compound 2.12.]
EC50 [2]: < 100 nM

CCC1(c2ccc(Cl)c(Cl)c2)C(C#N)=C(N)Oc2[nH]nc(C)c21 (centres unmarked) [Compound 2.14.]
EC50 [2]: < 100 nM

CCC1(c2cccc(F)c2)C(C#N)=C(N)Oc2[nH]nc(C)c21 (centres unmarked) [Compound 2.15.]
EC50 [2]: < 10000 nM

CCC1(c2ccc(F)c(F)c2)C(C#N)=C(N)Oc2[nH]nc(C)c21 (centres unmarked) [Compound 2.16.]
EC50 [2]: < 10000 nM

CCC1(c2cc(F)cc(F)c2)C(C#N)=C(N)Oc2[nH]nc(C)c21 (centres unmarked) [Compound 2.17.]
EC50 [2]: < 1000 nM

CCC1(c2cc(F)c(F)c(F)c2)C(C#N)=C(N)Oc2[nH]nc(C)c21 (centres unmarked) [Compound 2.18.]
EC50 [2]: < 1000 nM

CCC1(c2ccc(F)c(Cl)c2)C(C#N)=C(N)Oc2[nH]nc(C)c21 (centres unmarked) [Compound 2.19.]
EC50 [2]: < 100 nM

CCC1(c2cc(F)cc(Cl)c2)C(C#N)=C(N)Oc2[nH]nc(C)c21 (centres unmarked) [Compound 2.20.]
EC50 [2]: < 1000 nM

CCC1(c2ccc(OC)c(OC)c2)C(C#N)=C(N)Oc2[nH]nc(C)c21 (centres unmarked) [Compound 2.21.]
EC50 [2]: < 1000 nM

CCC1(c2ccc(OC)cc2)C(C#N)=C(N)Oc2[nH]nc(C)c21 (centres unmarked) [Compound 2.22.]
EC50 [2]: < 1000 nM

CCC1(c2ccc(Oc3ccc(C(F)(F)F)cc3Cl)c(C)c2)C(C#N)=C(N)Oc2[nH]nc(C)c21 (centres unmarked) [Compound 2.23.]
EC50 [2]: < 10000 nM

CCC1(c2ccc(O)c(C)c2)C(C#N)=C(N)Oc2[nH]nc(C)c21 (centres unmarked) [Compound 2.25.]
EC50 [2]: < 1000 nM

CCC1(c2ccc(OS(=O)(=O)CC)cc2)C(C#N)=C(N)Oc2[nH]nc(C)c21 (centres unmarked) [Compound 2.26.]
EC50 [2]: < 10000 nM

CCC1(c2ccc(OCc3ccccc3)cc2)C(C#N)=C(N)Oc2[nH]nc(C)c21 (centres unmarked) [Compound 2.28.]
EC50 [2]: < 1000 nM

CCC1(c2ccc(C(F)(F)F)c(F)c2)C(C#N)=C(N)Oc2[nH]nc(C)c21 (centres unmarked) [Compound 2.29.]
EC50 [2]: < 10000 nM

CCC1(c2ccc(C(F)(F)F)cc2)C(C#N)=C(N)Oc2[nH]nc(C)c21 (centres unmarked) [Compound 2.30.]
EC50 [2]: < 10000 nM

CCC1(c2cccc(C(F)(F)F)c2)C(C#N)=C(N)Oc2[nH]nc(C)c21 (centres unmarked) [Compound 2.31.]
EC50 [2]: < 1000 nM

CCC1(c2ccc(OC(F)F)cc2)C(C#N)=C(N)Oc2[nH]nc(C)c21 (centres unmarked) [Compound 2.32.]
EC50 [2]: < 10000 nM

CCC1(c2cc(F)cc(C(F)(F)F)c2)C(C#N)=C(N)Oc2[nH]nc(C)c21 (centres unmarked) [Compound 2.33.]
EC50 [2]: < 100 nM

CCC1(c2cc(F)c(O)c(F)c2)C(C#N)=C(N)Oc2[nH]nc(C)c21 (centres unmarked) [Compound 2.34.]
EC50 [2]: < 10000 nM

CCC1(c2cccc(-c3ccccc3)c2)C(C#N)=C(N)Oc2[nH]nc(C)c21 (centres unmarked) [Compound 2.35.]
EC50 [2]: < 1000 nM

CCCCCCOc1ccc(C2(CC)C(C#N)=C(N)Oc3[nH]nc(C)c32)cc1 (centres unmarked) [Compound 2.36.]
EC50 [2]: < 10000 nM

CCC1(c2ccc(O)c([N+](=O)[O-])c2)C(C#N)=C(N)Oc2[nH]nc(C)c21 (centres unmarked) [Compound 2.37.]
EC50 [2]: < 1000 nM

CCC1(c2ccc(NC(=O)C(C)(C)C)cc2)C(C#N)=C(N)Oc2[nH]nc(C)c21 (centres unmarked) [Compound 2.39.]
EC50 [2]: < 10000 nM

CCC1(c2ccc([N+](=O)[O-])cc2)C(C#N)=C(N)Oc2[nH]nc(C)c21 (centres unmarked) [Compound 2.40.]
EC50 [2]: < 1000 nM

CCC1(c2ccc(-c3ccccc3F)cc2)C(C#N)=C(N)Oc2[nH]nc(C)c21 (centres unmarked) [Compound 2.44.]
EC50 [2]: < 1000 nM

CCC1(c2cc(F)c(OC)c(F)c2)C(C#N)=C(N)Oc2[nH]nc(C)c21 (centres unmarked) [Compound 2.45.]
EC50 [2]: < 1000 nM

Cc1n[nH]c2c1C(c1ccc(Cl)cc1)(C1CC1)C(C#N)=C(N)O2 (centres unmarked) [Compound 2.46.]
EC50 [2]: < 1000 nM

CCC1(c2cc(C(F)(F)F)cc(C(F)(F)F)c2)C(C#N)=C(N)Oc2[nH]nc(C)c21 (centres unmarked) [Compound 2.47.]
EC50 [2]: < 100 nM

CCC1(c2ccc(OC(=O)c3c(Cl)cccc3Cl)c(C)c2)C(C#N)=C(N)Oc2[nH]nc(C)c21 (centres unmarked) [Compound 2.48.]
EC50 [2]: < 10000 nM

CCC1(c2ccc(OC(=O)c3ccccc3)c(C)c2)C(C#N)=C(N)Oc2[nH]nc(C)c21 (centres unmarked) [Compound 2.49.]
EC50 [2]: < 1000 nM

CCC1(c2ccc(OC(=O)C(C)(C)C)c(C)c2)C(C#N)=C(N)Oc2[nH]nc(C)c21 (centres unmarked) [Compound 2.52.]
EC50 [2]: < 1000 nM

CCC1(c2ccc(OS(=O)(=O)C(C)C)c(C)c2)C(C#N)=C(N)Oc2[nH]nc(C)c21 (centres unmarked) [Compound 2.54.]
EC50 [2]: < 1000 nM

CCC1(c2ccc(OS(=O)(=O)Cc3ccccc3)c(C)c2)C(C#N)=C(N)Oc2[nH]nc(C)c21 (centres unmarked) [Compound 2.55.]
EC50 [2]: < 1000 nM

CCC1(c2ccc(OS(=O)(=O)c3ccc(Cl)c(Cl)c3)c(C)c2)C(C#N)=C(N)Oc2[nH]nc(C)c21 (centres unmarked) [Compound 2.56.]
EC50 [2]: < 10000 nM

CCC1(c2ccc(OS(=O)(=O)c3ccc(Cl)cc3)c(C)c2)C(C#N)=C(N)Oc2[nH]nc(C)c21 (centres unmarked) [Compound 2.57.]
EC50 [2]: < 10000 nM

CCC1(c2ccc(OS(=O)(=O)c3ccccc3)c(C)c2)C(C#N)=C(N)Oc2[nH]nc(C)c21 (centres unmarked) [Compound 2.58.]
EC50 [2]: < 1000 nM

CCC1(c2ccc(OS(=O)(=O)c3ccc(Cl)cc3Cl)c(C)c2)C(C#N)=C(N)Oc2[nH]nc(C)c21 (centres unmarked) [Compound 2.59.]
EC50 [2]: < 10000 nM

Cc1n[nH]c2c1C(c1cccc(C(F)(F)F)c1)(C1CC1)C(C#N)=C(N)O2 (centres unmarked) [Compound 2.60.]
EC50 [2]: < 1000 nM

Cc1n[nH]c2c1C(c1cc(Cl)cc(Cl)c1)(C1CC1)C(C#N)=C(N)O2 (centres unmarked) [Compound 2.61.]
EC50 [2]: < 1000 nM

CCC1(c2cc(Cl)cc(Cl)c2)C(C#N)=C(N)Oc2[nH]ncc21 (centres unmarked) [Compound 2.62.]
EC50 [2]: < 10000 nM
